Earlier results in US7662371B2, “Composition for lowering the concentration of intestinal pathogenic peptides” (Neurozym Biotech AS, priority 2001, dated 2010).

Details: oral treatment, regressive-onset autism

In the case of CN[C@H](CC(C)C)C(=O)N[C@H]1C(=O)N[C@@H](CC(N)=O)C(=O)N[C@H]2C(=O)N[C@H]3C(=O)N[C@H](C(=O)N[C@H](C(=O)O)c4cc(O)cc(O)c4-c4cc3ccc4O)[C@H](O)c3ccc(c(Cl)c3)Oc3cc2cc(c3O[C@@H]2O[C@H](CO)[C@@H](O)[C@H](O)[C@H]2O[C@H]2C[C@](C)(N)[C@H](O)[C@H](C)O2)Oc2ccc(cc2Cl)[C@H]1O [vancomycin], the “improvement, number of children” value is listed as 8 of 10.
